Results published in ChEMBL document CHEMBL4428092, “Synthesis and activity evaluation of the cyclic dipeptides arylidene N-alkoxydiketopiperazines” (Bioorg Med Chem, 2016).

Columns and labels:
HCT-8 = test: Growth inhibition of human HCT8 cells at 20 ug/ml relative to control; format: functional; conditions: read-out: GI
HT-29 [1] = test: Growth inhibition of human HT-29 cells at 20 ug/ml relative to control; format: functional; conditions: read-out: GI
HCT-15 [2] = test: Growth inhibition of human HCT15 cells at 20 ug/ml relative to control; format: functional; conditions: read-out: GI
MDA-MB-231 = test: Growth inhibition of human MDA-MB-231 cells at 20 ug/ml relative to control; format: functional; conditions: read-out: GI
A549 [3] = test: Growth inhibition of human A549 cells at 20 ug/ml relative to control; format: functional; conditions: read-out: GI
[4] = Growth inhibition of human K562-1 cells at 20 ug/ml relative to control; format: functional; conditions: read-out: GI
HepG2 = test: Growth inhibition of human HepG2 cells at 20 ug/ml relative to control; format: functional; conditions: read-out: GI
HCT-15 [5] = test: Growth inhibition of human HCT15 cells at 20 ug/ml after 24 hrs by sulforhodamine B assay relative to control; format: functional; conditions: HCT-15, 24 h, read-out: GI
A549 [6] = test: Growth inhibition of human A549 cells at 20 ug/ml after 24 hrs by sulforhodamine B assay relative to control; format: functional; conditions: A549, 24 h, read-out: GI
HT-29 [7] = test: Growth inhibition of human HT-29 cells at 20 ug/ml after 24 hrs by sulforhodamine B assay relative to control; format: functional; conditions: HT-29, 24 h, read-out: GI
[8] = Growth inhibition of human Bre04 cells at 20 ug/ml after 24 hrs by sulforhodamine B assay relative to control; format: functional; conditions: Bre04, 24 h, read-out: GI
[9] = Growth inhibition of human K562-1 cells at 20 ug/ml after 24 hrs by sulforhodamine B assay relative to control; format: functional; conditions: read-out: GI
A549 [10] = test: Cytotoxicity against human A549 cells at 100 uM after 24 hrs by sulforhodamine B assay relative to control; format: functional
HCT-15 [11] = test: Cytotoxicity against human HCT15 cells at 5 uM after 24 hrs by sulforhodamine B assay relative to control; format: functional
A549 [12] = test: Cytotoxicity against human A549 cells at 20 uM after 24 hrs by sulforhodamine B assay relative to control; format: functional
HCT-15 [13] = test: Cytotoxicity against human HCT15 cells at 10 uM after 24 hrs by sulforhodamine B assay relative to control; format: functional
[14] = Cytotoxicity against human K562-1 cells at 50 uM after 24 hrs by sulforhodamine B assay relative to control; format: functional
A549 [15] = test: Cytotoxicity against human A549 cells at 50 uM after 24 hrs by sulforhodamine B assay relative to control; format: functional
[16] = Cytotoxicity against human K562-1 cells at 100 uM after 24 hrs by sulforhodamine B assay relative to control; format: functional
HT-29 [17] = test: Cytotoxicity against human HT-29 cells at 50 uM after 24 hrs by sulforhodamine B assay relative to control; format: functional
[18] = Cytotoxicity against human K562-1 cells at 5 uM after 24 hrs by sulforhodamine B assay relative to control; format: functional
[19] = Cytotoxicity against human K562-1 cells at 20 uM after 24 hrs by sulforhodamine B assay relative to control; format: functional
HT-29 [20] = test: Cytotoxicity against human HT-29 cells at 20 uM after 24 hrs by sulforhodamine B assay relative to control; format: functional
HCT-15 [21] = test: Cytotoxicity against human HCT15 cells at 100 uM after 24 hrs by sulforhodamine B assay relative to control; format: functional
[22] = Antiproliferative activity against human K562-1 cells after 24 hrs by sulforhodamine B assay relative to control; format: functional, cell-based
HCT-15 [23] = test: Antiproliferative activity against human HCT15 cells after 24 hrs by sulforhodamine B assay relative to control; format: functional, cell-based; conditions: HCT-15, 24 h
HCT-15 [24] = test: Cytotoxicity against human HCT15 cells at 20 uM after 24 hrs by sulforhodamine B assay relative to control; format: functional
HT-29 [25] = test: Cytotoxicity against human HT-29 cells at 100 uM after 24 hrs by sulforhodamine B assay relative to control; format: functional
HT-29 [26] = test: Cytotoxicity against human HT-29 cells at 10 uM after 24 hrs by sulforhodamine B assay relative to control; format: functional
[27] = Cytotoxicity against human K562-1 cells at 10 uM after 24 hrs by sulforhodamine B assay relative to control; format: functional
HCT-15 [28] = test: Cytotoxicity against human HCT15 cells at 50 uM after 24 hrs by sulforhodamine B assay relative to control; format: functional
A549 [29] = test: Antiproliferative activity against human A549 cells after 24 hrs by sulforhodamine B assay relative to control; format: functional, cell-based; conditions: A549, 24 h
A549 [30] = test: Cytotoxicity against human A549 cells at 5 uM after 24 hrs by sulforhodamine B assay relative to control; format: functional
A549 [31] = test: Cytotoxicity against human A549 cells at 10 uM after 24 hrs by sulforhodamine B assay relative to control; format: functional

IC50 (HCT-15 [23]) [µM]	SMILES	inhibition of growth at 20 µg/mL (HCT-8) [%]	inhibition of growth at 20 µg/mL (HT-29 [1]) [%]	inhibition of growth at 20 µg/mL (HCT-15 [2]) [%]	inhibition of growth at 20 µg/mL (MDA-MB-231) [%]	inhibition of growth at 20 µg/mL (A549 [3]) [%]	inhibition of growth at 20 µg/mL [4] [%]	inhibition of growth at 20 µg/mL (HepG2) [%]	inhibition of growth at 20 µg/mL [8] [%]	Activity (HCT-15 [11]) [%]	Activity (HCT-15 [13]) [%]	Activity [14] [%]	Activity (A549 [15]) [%]	Activity [16] [%]	Activity (HT-29 [17]) [%]	Activity [18] [%]	Activity [19] [%]	Activity (HT-29 [20]) [%]	Activity (HCT-15 [21]) [%]	IC50 [22] [µM]	also measured
–	O=C1[C@@H]2CCCN2C(=O)/C(=C\c2ccccc2)N1OC1CCCCC1	76.3	69.4	72.3	17.3	33.8	78.2	68.5	–	–	–	–	–	–	–	–	–	–	–	–	–
–	COc1cc(/C=C2\C(=O)N3CCC[C@H]3C(=O)N2OCc2ccccc2)cc(OC)c1OC	79.1	70.1	74.2	43.2	8.9	73.2	75	–	–	–	–	–	–	–	–	–	–	–	–	–
–	COc1cc(/C=C2\C(=O)N3CCC[C@H]3C(=O)N2OCc2cccnc2)cc(OC)c1OC	–	–	–	–	–	–	–	–	–	–	–	–	–	–	–	–	–	–	–	inhibition of growth at 20 µg/mL (HCT-15 [5]): 78.7%; inhibition of growth at 20 µg/mL (A549 [6]): 27.1%; inhibition of growth at 20 µg/mL (HT-29 [7]): 30.7%
–	CCCCON1C(=O)[C@@H]2CCCN2C(=O)/C1=C\c1cc(OC)c(OC)c(OC)c1	60.6	61.6	61.6	45.6	43.4	64.4	64.3	–	–	–	–	–	–	–	–	–	–	–	–	–
–	O=C1[C@@H]2CCCN2C(=O)/C(=C\c2ccccc2)N1OCc1ccccc1	66.8	76.2	69.7	32.6	41.3	65.6	69.2	25	–	–	–	–	–	–	–	–	–	–	–	–
–	CCON1C(=O)[C@@H]2CCCN2C(=O)/C1=C\c1ccccc1	–	–	–	–	–	–	–	21.9	–	–	–	–	–	–	–	–	–	–	–	inhibition of growth at 20 µg/mL (A549 [6]): 25.3%; inhibition of growth at 20 µg/mL (HT-29 [7]): 62.8%; inhibition of growth at 20 µg/mL [9]: 42.6%
11.8	CCCCON1C(=O)[C@@H]2CCCN2C(=O)/C1=C\c1ccccc1	68.4	64.9	90.6	16.3	50.8	96.2	59.9	–	4.04	48.8	92.7	48.4	99.6	61.6	30.2	46.5	39.8	99.1	27.3	Activity (A549 [10]): 91.1%; Activity (A549 [12]): 16.2%; Activity (HCT-15 [24]): 78.3%; Activity (HT-29 [25]): 80.6%; Activity (HT-29 [26]): 21.2%; Activity [27]: 39.2%; Activity (HCT-15 [28]): 87.5%
8.6	COc1cc(/C=C2\C(=O)N3CCC[C@H]3C(=O)N2OCc2ccc(Cl)cc2)cc(OC)c1OC	–	–	–	–	–	–	–	50.3	42.4	60.5	96.5	81.8	97.8	55.7	36.7	73.9	39.2	98.6	7.3	Activity (A549 [10]): 91.7%; Activity (A549 [12]): 63.4%; IC50 (A549 [29]): 11.4 µM; inhibition of growth at 20 µg/mL (HCT-15 [5]): 92.6%; Activity (A549 [30]): 4.03%; Activity (HCT-15 [24]): 81.6%; inhibition of growth at 20 µg/mL (A549 [6]): 76.6%; inhibition of growth at 20 µg/mL (HT-29 [7]): 53.2%; Activity (HT-29 [25]): 86.8%; Activity (HT-29 [26]): 24.2%; Activity (A549 [31]): 48.1%; inhibition of growth at 20 µg/mL [9]: 95.7%; Activity [27]: 58.1%; Activity (HCT-15 [28]): 94.4%
14.1	CON1C(=O)[C@@H]2CCCN2C(=O)/C1=C\c1ccccc1	78.8	65.4	88.8	23.5	26.6	90.4	62.2	24.5	37.3	46.8	87.3	22.4	98.6	56.4	24.4	55.4	34.9	96.5	17.6	Activity (A549 [10]): 50.5%; Activity (HCT-15 [24]): 60.5%; Activity (HT-29 [25]): 88.6%; Activity (HT-29 [26]): 28.1%; Activity [27]: 36.2%; Activity (HCT-15 [28]): 82.6%
–	O=C1[C@@H]2CCCN2C(=O)/C(=C\c2cccnc2)N1OC1CCCCC1	80.1	70.3	62.1	16.1	35.2	69.3	60.4	35.3	–	–	–	–	–	–	–	–	–	–	–	–
23.7	COc1cc(/C=C2\C(=O)N3CCC[C@H]3C(=O)N2OC2CCCCC2)cc(OC)c1OC	75.2	60.5	67.9	42.5	26.4	–	76.1	–	40.4	39.2	83.6	33.4	96.4	56.6	30.2	61.3	42.9	89.7	9.8	Activity (A549 [12]): 20.5%; Activity (HCT-15 [24]): 47.6%; Activity (HT-29 [25]): 88.5%; Activity (HT-29 [26]): 48.8%; inhibition of growth at 20 µg/mL [9]: 80.1%; Activity [27]: 50.7%; Activity (HCT-15 [28]): 69.3%
